Converted amounts (≈) assume the structure as drawn. Counter-ions that a name gives are not always drawn.
Key:
[1] = system: p388 murine leukemia; assay: In vivo activity against p388 murine leukemia in an acute mouse model; settings: for AWC (average weight change per mouse): before treatment to day five
Method: CDF1 mice of both sexes weighing between 16 and 25 gm. were used, with a 2 gm. weight range and same sex and source used per experiment. BDF1 mice also were used with the same weight, sex and source parameters. Control and test animals were injected interperitoneally with suspension of 1×10^6 p388 murine leukemia cells (0.5 mL dose) on day 0. Groups of 4-6 mice were used for each dosage amount they were treated with 5 doses on day one. A group of ten saline treated control mice was included in each set of experiments. A 30 day protocol was employed with mean survival time in days being determined for each group of mice with the number of survivors at the end of the 30 day period being noted. The mice were weighed before treatment and again on day five. The values listed for average weight change (AWC) is the average weight change per mouse at the specified dose. The change in weight was taken as a measure of drug toxicity. A loss in weight of up to 2 grams is not considered excessive. The results were determined in terms of % T/C which is the ratio of the mean survival time of the treated group to the mean survival time of the saline treated group times 100.

[2] = system: human colon tumor with low topo II activity (HCTVP); assay: In vitro microdilution inhibition, HCTVP; type: cell-based; settings: 72 hours, 50% of cells killed
From the text: (§1) As shown in Table III the compounds of the present invention exert an in vitro antitumor effect. The following cells lines were employed: human lung (A549); resistant human lung with low topo II activity (A549-VP); murine melanoma (B16); human colon tumor (HCT116); human colon tumor with elevated p170 levels (HCTVM); human colon tumor with low topo II activity (HCTVP); and another human colon carcinoma cell line (Moser). In the Table, the designation "NT" indicates the compound was not tested against the specified cell line. The cell lines were maintained in continuous culture at 37°, 5% CO2 and high humidity. Cells were harvested in log phase growth and suspended at concentration of 25,000 cells/mL. A […] aliquot was then added to each well (i.e., 3,750 cells per well) of a 96-well flat bottom plate and the cells were allowed to attach over a 24 hour period. After this 24 hour incubation, a 50 μL sample of the specified compound was added to the first (top) well of each column, and the remaining wells of each column serially diluted, 1:4, and allowed to incubate for 72 hours at 37° C., 5% CO2 and high humidity. Following incubation, 50 μL of freshly prepared stain solution was added to each well. After a 3 hour incubation at room temperature, absorbance was read at 450 nm on a microplate reader to determine the compound concentration at which 50% of the cells were killed, such concentration referred to as the "IC50 ".

[3] = system: resistant human lung with low topo II activity (A549-VP); assay: In vitro microdilution inhibition, resistant human lung A549-VP; type: cell-based; settings: A549VP, 72 hours, 50% of cells killed
From the text: as §1

[4] = system: human lung (A549); assay: In vitro microdilution inhibition, human lung A549; type: cell-based; settings: A549, 72 hours, 50% of cells killed
From the text: as §1

[5] = system: human colon tumor (HCT116); assay: In vitro microdilution inhibition, HCT116; type: cell-based; settings: HCT-116, 72 hours, 50% of cells killed
From the text: as §1

[6] = system: human colon tumor with elevated p170 levels (HCTVM); assay: In vitro microdilution inhibition, HCTVM; type: cell-based; settings: 72 hours, 50% of cells killed
From the text: as §1

[7] = system: murine melanoma (B16); assay: In vitro microdilution inhibition, B16; type: cell-based; settings: Mus musculus; B16, 72 hours, 50% of cells killed
From the text: as §1

[8] = system: human colon carcinoma cell line (Moser); assay: In vitro microdilution inhibition, Moser; type: cell-based; settings: 72 hours, 50% of cells killed
From the text: as §1

[9] = Mus musculus, P388, 720 h, CDF1 (female only), 4 mg/kg, read-out: % T/C (mean survival time treated/control)
[10] = Mus musculus, P388, 720 h, CDF1 (female only), 12 mg/kg, read-out: % T/C (mean survival time treated/control)
[11] = Mus musculus, P388, 720 h, CDF1 (female only), 36 mg/kg, read-out: % T/C (mean survival time treated/control)
[12] = Mus musculus, P388, 720 h, CDF1 (mixed sex), 5 mg/kg, read-out: % T/C (mean survival time treated/control)
[13] = Mus musculus, P388, 720 h, CDF1 (mixed sex), 15 mg/kg, read-out: % T/C (mean survival time treated/control)

CCCCCc1cc2cc3c(c(O)c2c(=O)[nH]1)C1(CC3)C(=O)c2c(O)c3c(c(O)c2C1=O)C(=O)C(NCC)=CC3=O (stereo not shown) [Example 23, 2',6'7'-trihydro-4,9,9'-trihydroxy-3'-(n-pentyl)-6-ethylamino-spiro[2H-benz[f]-indene-2,8'-[8H]cyclopent[g]-isoquinoline]-1,1',3,5,8-pentone]
AWC (average weight change per mouse) ([1]; CDF1 (female only), 4 mg/kg): 1.8
AWC (average weight change per mouse) ([1]; CDF1 (female only), 12 mg/kg): 1.7
AWC (average weight change per mouse) ([1]; CDF1 (female only), 36 mg/kg): 0.7
response vs control in vivo at 4 mg/kg [1, 9]: 100%
response vs control in vivo at 12 mg/kg [1, 10]: 95%
response vs control in vivo at 36 mg/kg [1, 11]: 100%
IC50 [2]: 0.1 µg/mL (≈ 0.18 µM)
IC50 [3]: 0.1 µg/mL (≈ 0.18 µM)
IC50 [4]: 0.14 µg/mL (≈ 0.252 µM)
IC50 [5]: 0.28 µg/mL (≈ 0.503 µM)
IC50 [6]: 0.22 µg/mL (≈ 0.395 µM)
IC50 [7]: 0.39 µg/mL (≈ 0.701 µM)

CCNC1=CC(=O)c2c(O)c3c(c(O)c2C1=O)C(=O)C1(CCc2cccc(O)c21)C3=O (stereo not shown) [Example 15, 2',3'-Dihydro-6-ethylamino-7'-hydroxy-1H-indene-1'-spiro-2-[4,9-dihydroxy-2H-benz[f]-indene-1,3,5,8-tetrone]]
AWC (average weight change per mouse) ([1]; CDF1 (mixed sex), 5 mg/kg): -0.1
AWC (average weight change per mouse) ([1]; CDF1 (mixed sex), 15 mg/kg): -0.2
% T/C (mean survival time treated/control) ([1]; CDF1 (mixed sex), 45 mg/kg): Toxic
response vs control in vivo at 5 mg/kg [1, 12]: 100%
response vs control in vivo at 15 mg/kg [1, 13]: 115%
IC50 [2]: 0.05 µg/mL (≈ 0.119 µM)
IC50 [3]: 0.05 µg/mL (≈ 0.119 µM)
IC50 [4]: < 0.03 µg/mL
IC50 [5]: 0.03 µg/mL (≈ 0.0715 µM)
IC50 [6]: 0.03 µg/mL (≈ 0.0715 µM)
IC50 [7]: 0.03 µg/mL (≈ 0.0715 µM)

CN(C)CCNC1=CC(=O)c2c(O)c3c(c(O)c2C1=O)C(=O)C1(CCc2cccc(O)c21)C3=O (stereo not shown) [Example 24, hydrochloride]
AWC (average weight change per mouse) ([1]; CDF1 (mixed sex), 5 mg/kg): -0.3
AWC (average weight change per mouse) ([1]; CDF1 (mixed sex), 15 mg/kg): -0.3
AWC (average weight change per mouse) ([1]; CDF1 (mixed sex), 45 mg/kg): -0.9
response vs control in vivo at 5 mg/kg [1, 12]: 110%
response vs control in vivo at 15 mg/kg [1, 13]: 110%
response vs control in vivo at 45 mg/kg ([1]; Mus musculus, P388, 720 h, CDF1 (mixed sex), 45 mg/kg, read-out: % T/C (mean survival time treated/control)): 120%
IC50 [2]: 1.1 µg/mL
IC50 [3]: 1.4 µg/mL
IC50 [4]: 0.5 µg/mL
IC50 [5]: 0.2 µg/mL
IC50 [6]: 0.7 µg/mL
IC50 [7]: 0.4 µg/mL

CCCCCc1cc2cc3c(c(O)c2c(=O)[nH]1)C1(CC3)C(=O)c2c(O)c3c(c(O)c2C1=O)C(=O)C(NCCN(C)C)=CC3=O (stereo not shown) [Example 25, hydrochloride]
AWC (average weight change per mouse) ([1]; CDF1 (female only), 4 mg/kg): 0.9
AWC (average weight change per mouse) ([1]; CDF1 (female only), 12 mg/kg): -0.7
AWC (average weight change per mouse) ([1]; CDF1 (female only), 36 mg/kg): -1.6
response vs control in vivo at 4 mg/kg [1, 9]: 125%
response vs control in vivo at 12 mg/kg [1, 10]: 105%
response vs control in vivo at 36 mg/kg [1, 11]: 120%
IC50 [2]: 0.13 µg/mL
IC50 [3]: 0.16 µg/mL
IC50 [4]: 0.14 µg/mL
IC50 [5]: 0.27 µg/mL
IC50 [6]: 0.22 µg/mL
IC50 [7]: 0.14 µg/mL

COCOc1cccc2c1C1(CC2)C(=O)c2c(O)c3c(c(O)c2C1=O)C(=O)C(NCCO)=CC3=O (stereo not shown) [Example 16, 2',3'-Dihydro-7'-(methoxymethoxy)-1H-indene-1'-spiro-[4,9-dihydroxy-6-(2-hydroxyethylamino)-2H-benz[f]indene-1,3,5,8-tetrone]]
AWC (average weight change per mouse) ([1]; CDF1 (female only), 3.3 mg/kg): -0.1
AWC (average weight change per mouse) ([1]; CDF1 (female only), 10 mg/kg): -1.1
AWC (average weight change per mouse) ([1]; CDF1 (female only), 30 mg/kg): -2.6
response vs control in vivo at 3.3 mg/kg ([1]; Mus musculus, P388, 720 h, CDF1 (female only), 3.3 mg/kg, read-out: % T/C (mean survival time treated/control)): 95%
response vs control in vivo at 10 mg/kg ([1]; Mus musculus, P388, 720 h, CDF1 (female only), 10 mg/kg, read-out: % T/C (mean survival time treated/control)): 95%
response vs control in vivo at 30 mg/kg ([1]; Mus musculus, P388, 720 h, CDF1 (female only), 30 mg/kg, read-out: % T/C (mean survival time treated/control)): 130%
IC50 [2]: 0.04 µg/mL (≈ 0.0834 µM)
IC50 [3]: 0.04 µg/mL (≈ 0.0834 µM)
IC50 [4]: < 0.03 µg/mL
IC50 [5]: 0.05 µg/mL (≈ 0.104 µM)
IC50 [6]: 0.06 µg/mL (≈ 0.125 µM)
IC50 [7]: 0.03 µg/mL (≈ 0.0626 µM)

COCOc1cccc2c1C1(CC2)C(=O)c2c(O)c3c(c(O)c2C1=O)C(=O)C(Sc1ccccc1)=C(Sc1ccccc1)C3=O [Example 31, 2',3'-Dihydro-7'-(methoxymethoxy)-1H-indene-1'-spiro-2-[6,7-di(phenylmercapto)-4,9-dihydroxy-2H-benz[f]indene-I,3,5,8-tetrone]]
IC50 [2]: > 16 µg/mL
IC50 [3]: > 16 µg/mL
IC50 [4]: > 16 µg/mL
IC50 [5]: > 16 µg/mL
IC50 [6]: > 16 µg/mL
IC50 [7]: > 16 µg/mL

COCOc1cccc2c1C1(CC2)C(=O)c2c(O)c3c(c(O)c2C1=O)C(=O)C=CC3=O [Example 2, 2',3'-Dihydro-7'-(methoxymethoxy)-1H-indene-1'-spiro-2-[4,9-dihydroxy-2H-benz[f]indene-1,3,5,8-tetrone]]
AWC (average weight change per mouse) ([1]; CDF1 (mixed sex), 5 mg/kg): -0.1
AWC (average weight change per mouse) ([1]; CDF1 (mixed sex), 15 mg/kg): -1.3
% T/C (mean survival time treated/control) ([1]; CDF1 (mixed sex), 45 mg/kg): Toxic
response vs control in vivo at 5 mg/kg [1, 12]: 105%
response vs control in vivo at 15 mg/kg [1, 13]: 110%
IC50 [2]: 0.29 µg/mL (≈ 0.69 µM)
IC50 [4]: 0.36 µg/mL (≈ 0.856 µM)
IC50 [5]: 0.25 µg/mL (≈ 0.595 µM)
IC50 [8]: 1.07 µg/mL (≈ 2.55 µM)
IC50 [7]: 0.14 µg/mL (≈ 0.333 µM)

O=C1C=CC(=O)c2c(O)c3c(c(O)c21)C(=O)C1(CCc2cccc(O)c21)C3=O [Example 3, 2',3'-Dihydro-7'-hydroxy-1H-indene-1'-spiro-2-[4,9-dihydroxy-benz[f]indene-1,3,5,8-tetrone]]
IC50 [2]: 0.86 µg/mL (≈ 2.29 µM)
IC50 [4]: 1.14 µg/mL (≈ 3.03 µM)
IC50 [5]: 1.13 µg/mL (≈ 3 µM)
IC50 [8]: 3.07 µg/mL (≈ 8.16 µM)
IC50 [7]: 0.88 µg/mL (≈ 2.34 µM)

COCOc1cccc2c1C1(CC2)C(=O)c2c(O)c3c(c(O)c2C1=O)C(=O)C(NCC(=O)O)=CC3=O (stereo not shown) [Example 29, 2',3'-Dihydro-7'-(methoxymethoxy)-1H-indene-1'-spiro-2-[6-((carboxymethyl)amino)-4,9-dihydroxy-2H-benz[f]indene-1,3,5,8-tetrone]sodium salt]
IC50 [2]: 1 µg/mL
IC50 [3]: 1.6 µg/mL
IC50 [4]: 1.2 µg/mL
IC50 [5]: 0.9 µg/mL
IC50 [6]: 1 µg/mL
IC50 [7]: 0.8 µg/mL

O=C1C(Sc2ccccc2)=C(Sc2ccccc2)C(=O)c2c(O)c3c(c(O)c21)C(=O)C1(CCc2cccc(O)c21)C3=O [Example 32, 2',3'-Dihydro-7'-hydroxy-1H-indene-1'-spiro-2-[4,9-dihydroxy-6,7-di(phenylmercapto)-2H-benz[f]indene-1,3,5,8-tetrone]]
IC50 [2]: > 16 µg/mL
IC50 [3]: > 16 µg/mL
IC50 [4]: > 16 µg/mL
IC50 [5]: > 16 µg/mL
IC50 [6]: > 16 µg/mL
IC50 [7]: > 16 µg/mL

CCOC(OCC)c1cc2cc3c(c(OCOC)c2c(OC)n1)C1(CC3)C(=O)c2c(O)c3c(c(O)c2C1=O)C(=O)C=CC3=O [Example 9, 6',7'-Dihydro-1-methoxy-9'-(methoxymethoxy-3-(diethoxymethyl)-spiro[2H-benz[f]indene-2,8'-8H]cyclopent[g]isoquinoline]-1,3,5,8-tetrone]
IC50 [2]: 2.38 µg/mL (≈ 3.94 µM)
IC50 [4]: 4.42 µg/mL (≈ 7.32 µM)
IC50 [5]: 0.71 µg/mL (≈ 1.18 µM)
IC50 [8]: 4.4 µg/mL (≈ 7.29 µM)
IC50 [7]: 0.78 µg/mL (≈ 1.29 µM)

— patent US5166208A, “Fredericamycin A derivatives” (Boston College, priority 1991, dated 1992)
